Data on 4 compounds can be found in patent US11220488B2, “Crystalline polymorph of Ponesimod” (TEVA PHARMACEUTICALS INTERNATIONAL GMBH, priority 2017, dated 2022).

A short description of this series: Solubility measurement by dissolution apparatus, Ponesimod content by liquid chromatography. Format: physicochemical. As for the experimental part:
The solubility for Ponesimod Form T1, according to this invention, Ponesimod Form A and Form C (described in PCT application WO 2010/046835) was measured by using Dissolution apparatus (Lab India DS8000) at 37° C. Buffers at pH. 1.2, 4.5 and 6.8 were prepared as per the USP 36 Solutions/Buffer Solutions 1209. About 200 mg of Ponesimod Form T1, 150 mg of Ponesimod Forms A and C were added to the 100 mL buffer (pH 1.2, 4.5 and 6.8) in individual flasks to obtain saturated suspension and the suspension was stirred with 250 rpm for 24 hours. Suspension was observed though out stirring period. Samples were drawn at different intervals on completion of 15 mins, 30 mins, 45 mins, 1 hrs, 2 hrs, 3 hrs, 4 hrs and 24 hrs from each flask and filtered through 0.45μ PTFE filter, each solution was analyzed for Ponesimod content by liquid chromatography.

The structures appear in SMILES notation. Values after ≈ are worked out from the molar mass of the structure shown.

Regarding `CCC/N=C1\S/C(=C\c2ccc(OC[C@H](O)CO)c(Cl)c2)C(=O)N1c1ccccc1C` [Form C, (R)-5-[3-chloro-4-(2,3-dihydroxy-propoxy)-benz[Z]ylidene]-2-([Z]-propylimino)-3-o-tolyl-thiazolidin-4-one], the “Solubility results at pH = 1.2” value by setting is: (pH 1.2 buffer, 37° C., 2 Hrs, listed as C) 0.09 mg/ml; (pH 1.2 buffer, 37° C., 3 Hrs, listed as C) 0.11 mg/ml; (pH 1.2 buffer, 37° C., 4 Hrs, listed as C) 0.12 mg/ml; (pH 1.2 buffer, 37° C., 15 Min, listed as C) 0.05 mg/ml; (pH 1.2 buffer, 37° C., 24 Hrs, listed as C) 0.15 mg/ml; (pH 1.2 buffer, 37° C., 30 Min, listed as C) 0.06 mg/ml. In addition, the “Solubility results at pH = 1.2” value reads like this: (pH 1.2 buffer, 37° C., 45 Min, listed as C) 0.07 mg/ml; (pH 1.2 buffer, 37° C., 60 Min, listed as C) 0.08 mg/ml.

Regarding `CCC/N=C1\S/C(=C\c2ccc(OC[C@H](O)CO)c(Cl)c2)C(=O)N1c1ccccc1C` [Form A, (R)-5-[3-chloro-4-(2,3-dihydroxy-propoxy)-benz[Z]ylidene]-2-([Z]-propylimino)-3-o-tolyl-thiazolidin-4-one], where the note is “pH 1.2 buffer (USP), 37 °C, pH 1.2, simulated gastric fluid, thermodynamic from solid, pH 1.2 buffer, 45 Min”, the solubility (commonly how much of the substance goes into solution per volume) at 45 min was 120 µg/mL (≈ 260 µM). For the setting “pH 1.2 buffer (USP), 37 °C, pH 1.2, simulated gastric fluid, thermodynamic from solid, pH 1.2 buffer, 60 Min”, this compound had a solubility at 60 min of 120 µg/mL (≈ 260 µM). The “Solubility results at pH = 1.2” value is, setting by setting: (pH 1.2 buffer, 37° C., 2 Hrs, listed as A) 0.11 mg/ml; (pH 1.2 buffer, 37° C., 3 Hrs, listed as A) 0.11 mg/ml; (pH 1.2 buffer, 37° C., 4 Hrs, listed as A) 0.11 mg/ml; (pH 1.2 buffer, 37° C., 30 Min, listed as A) 0.13 mg/ml.

For `CCC/N=C1\S/C(=C\c2ccc(OC[C@H](O)CO)c(Cl)c2)C(=O)N1c1ccccc1C` [Ponesimod, (R)-5-[3-chloro-4-(2,3-dihydroxy-propoxy)-benz[Z]ylidene]-2-([Z]-propylimino)-3-o-tolyl-thiazolidin-4-one], the “Solubility at higher pH conditions” value (higher pH conditions (e.g. 4.5 and 6.8), 37° C.) is reported as “not soluble”.

In the case of `CCC/N=C1\S/C(=C\c2ccc(OC[C@H](O)CO)c(Cl)c2)C(=O)N1c1ccccc1C` [Form T1, (R)-5-[3-chloro-4-(2,3-dihydroxy-propoxy)-benz[Z]ylidene]-2-([Z]-propylimino)-3-o-tolyl-thiazolidin-4-one], the “Solubility compared to other known crystalline polymorphs of Ponesimod” value (comparison in words) is “higher solubility”. Moreover, the “Solubility results at pH = 1.2” value by setting is: (pH 1.2 buffer, 37° C., 2 Hrs, listed as T1) 0.24 mg/ml; (pH 1.2 buffer, 37° C., 3 Hrs, listed as T1) 0.29 mg/ml; (pH 1.2 buffer, 37° C., 4 Hrs, listed as T1) 0.31 mg/ml; (pH 1.2 buffer, 37° C., 15 Min, listed as T1) 0.07 mg/ml; (pH 1.2 buffer, 37° C., 24 Hrs, listed as T1) 0.40 mg/ml; (pH 1.2 buffer, 37° C., 30 Min, listed as T1) 0.09 mg/ml. For the same compound, the “Solubility results at pH = 1.2” value reads like this: (pH 1.2 buffer, 37° C., 45 Min, listed as T1) 0.12 mg/ml; (pH 1.2 buffer, 37° C., 60 Min, listed as T1) 0.15 mg/ml.
